{
  "source": "patent US10232035B2",
  "about": "“Conditionally replication deficient herpes virus and use thereof in vaccines” (THE REGENTS OF THE UNIVERSITY OF COLORADO, A BODY CORPORATE, priority 2012, dated 2019)",
  "system": "SVV mutant 2",
  "settings": "decreasing amounts of TMP, FIG. 6",
  "description": "Replication of mutant 2 was monitored by GFP expression (FIG. 5). […] GFP expression was monitored using an inverted microscope.",
  "data": [
    {"smiles": "COc1cc(Cc2cnc(N)nc2N)cc(OC)c1OC", "note": "[TMP, trimethoprim]", "values": [
      {"measurement": "lowest amount of TMP that can be used with SVV mutant 2", "result": 0.05, "unit": "µM"}
    ]}
  ]
}
